Measurements taken from patent publication US20240000075A1, “FUNGICIDAL ARYL AMIDINES” (CORTEVA AGRISCIENCE LLC, priority 2020, published 2024).
Read-outs that look alike come from different tables or passages of the source.

Key:
Zymoseptoria tritici = assay: Septoria leaf blotch of wheat, whole-plant fungicidal activity (SEPTTR); format: in vivo, Zymoseptoria tritici on wheat plants (variety 'Yuma'); conditions: read-out: % Disease Control Rating SEPTTR
How it was run: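 Compounds in acetone, diluted with nine volumes of water containing 110 ppm Triton X-100, were sprayed to run-off on 'Yuma' wheat seedlings at full first-leaf emergence. Spore inoculation was 3 days before (3DC, curative) or 1 day after (1DP, protectant) treatment, then 3 days at 100% RH and greenhouse. First-leaf disease severity (0–100%) was scored relative to untreated plants as percent control.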

Puccinia triticina = assay: Wheat brown rust, whole-plant fungicidal activity (PUCCRT); format: in vivo, Puccinia triticina on wheat plants (variety 'Yuma'); conditions: 24 h, 1DP (1 day protectant), read-out: % Disease Control Rating PUCCRT
How it was run: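 Wheat 'Yuma' seedlings at first-leaf stage sprayed to run-off with compound from acetone stock diluted in nine volumes water containing 110 ppm Triton X-100, then inoculated with Puccinia triticina spores. Held overnight in dark dew room at 100% RH, then greenhouse for disease development.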

Phakopsora pachyrhizi = assay: Asian soybean rust, whole-plant fungicidal activity (PHAKPA); format: in vivo; conditions: read-out: % Disease Control Rating PHAKPA
How it was run: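 Ten-day-old 'Williams 82' soybean seedlings sprayed to run-off with compound in acetone/water (1:9, 0.011% Tween-20), air-dried, then inoculated; 24 h dark dew room at 100% RH, then growth room. Disease severity scored 0–100% on sprayed leaves; percent control relative to untreated plants.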

Rhynchosporium commune = assay: Leaf blotch of barley, whole-plant fungicidal activity (RHYNSE); format: in vivo; conditions: 24 h, 1DP (1 day protectant), read-out: % Disease Control Rating RHYNSE
How it was run: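 Barley cv. 'Harrington' at full first-leaf emergence (7-10 seedlings per pot) was sprayed to run-off with compound in acetone plus nine volumes of water containing 110 ppm Triton X-100, air-dried, then inoculated with spore suspension. Plants spent two days in a dark dew room at 100% RH, then moved to greenhouse for disease development.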

| Compound | pest or weed control at 200 ppm (Zymoseptoria tritici; 24 h, 1DP (1 day protectant)) [%] | pest or weed control at 200 ppm (Zymoseptoria tritici; 72 h, 3DC (3 day curative)) [%] | pest or weed control at 200 ppm (Puccinia triticina) [%] | pest or weed control at 200 ppm (Phakopsora pachyrhizi; 24 h, 1DP (1 day protectant)) [%] | pest or weed control at 200 ppm (Phakopsora pachyrhizi; 72 h, 3DC (3 day curative)) [%] | pest or weed control at 200 ppm (Rhynchosporium commune) [%] | melting point [°C] |
| --- | --- | --- | --- | --- | --- | --- | --- |
| CCN(C)/C=N/c1cc(C)c(C(=O)Cc2ccccc2C)cc1C [Compound 1] | < 20 | 20 to 50 | > 85 | > 85 | > 85 | > 85 | 101 to 105 |
| CCN(C)/C=N/c1cc(C)c(C(=O)Cc2ccccc2)cc1C [Compound 2] | 20 to 50 | < 20 | > 85 | > 85 | > 85 | > 85 | 43 to 46 |
| CCN(C)/C=N/c1cc(C)c(C(=O)CC2CCCCC2)cc1C [Compound 3] | > 85 | 20 to 50 | > 85 | > 85 | > 85 | > 85 | 69 to 71 |
| CCN(C)/C=N/c1cc(C)c(C(=O)Cc2cccc(C(F)(F)F)c2)cc1C [Compound 5] | 20 to 50 | < 20 | > 85 | > 85 | > 85 | > 85 | 73 to 76 |
| CCN(C)/C=N/c1cc(C)c(C(=O)Cc2ccc(C)cc2F)cc1C [Compound 7] | 20 to 50 | < 20 | > 85 | > 85 | > 85 | > 85 | 102 to 105 |
| CCN(C)/C=N/c1cc(C)c(C(=O)Cc2ccc(OC(F)(F)F)cc2)cc1C [Compound 8] | 50 to 85 | 20 to 50 | > 85 | > 85 | > 85 | > 85 | 70 to 74 |
| CCN(C)/C=N/c1ccc(C(=O)Cc2cccc(C(F)(F)F)c2)c(C)c1C [Compound 10] | < 20 | < 20 | < 20 | > 85 | > 85 | 20 to 50 | 53 to 57 |
| CCN(C)/C=N/c1ccc(C(=O)CCC(F)(F)F)c(C)c1C [Compound 13] | < 20 | < 20 | < 20 | 50 to 85 | > 85 | < 20 | 52 to 56 |
| Cc1cc(C(=O)Cc2c(F)cc(F)cc2F)c(C)cc1/N=C/N1CCCCC1 [Compound 81] | < 20 | < 20 | > 85 | 50 to 85 |  | < 20 |  |
| Cc1cc(C(=O)CC2CCCC2)c(C)cc1/N=C/N(C)C(C)C [Compound 82] | > 85 | < 20 | > 85 | > 85 | > 85 | > 85 |  |
| CCN(C)/C=N/c1cc(C)c(C(=O)Cc2ccccc2OC(F)F)cc1C [Compound 83] | < 20 | < 20 | > 85 | > 85 | > 85 | > 85 |  |
| CCN(C)/C=N/c1cc(C)c(C(=O)Cc2cccc(OC(F)F)c2)cc1C [Compound 84] | < 20 | < 20 | > 85 | > 85 | > 85 | > 85 |  |
| CCN(C)/C=N/c1cc(C)c(C(=O)Cc2ccc(OC(F)F)cc2)cc1C [Compound 85] | > 85 | 20 to 50 | > 85 | > 85 | > 85 | > 85 |  |
| CCN(C)/C(C)=N/c1cc(C)c(C(=O)Cc2c(F)cc(F)cc2F)cc1C [Compound 86] | < 20 | < 20 | > 85 | > 85 | > 85 | < 20 |  |
| CC/C(=N\c1cc(C)c(C(=O)Cc2c(F)cc(F)cc2F)cc1C)N(C)CC [Compound 87] | < 20 | < 20 | > 85 | 50 to 85 | 20 to 50 | < 20 |  |
| Cc1cc(C(=O)Cc2c(F)cc(F)cc2F)c(C)cc1/N=C1\CCCCN1C [Compound 88] | < 20 | < 20 | 50 to 85 | 50 to 85 | > 85 | < 20 |  |
| CCN(C)/C=N/c1cc(C)c(C(=O)Cc2c(F)cc(F)cc2F)cc1OC [Compound 89] | < 20 | < 20 | > 85 | 50 to 85 | 20 to 50 | 20 to 50 |  |
| CCN(C)/C(C)=N/c1cc(C)c(C(=O)CC2CCCC2)cc1C [Compound 90] | < 20 | < 20 | > 85 | > 85 | > 85 | 20 to 50 |  |
| CC/C(=N\c1cc(C)c(C(=O)CC2CCCC2)cc1C)N(C)CC [Compound 91] | < 20 | < 20 | > 85 | > 85 | > 85 | < 20 |  |
| Cc1cc(C(=O)CC2CCCC2)c(C)cc1/N=C1\CCCCN1C [Compound 92] | < 20 | < 20 | > 85 | 50 to 85 | 50 to 85 | 20 to 50 |  |
| CCN(C)/C(S)=N/c1cc(C)c(C(=O)Cc2c(F)cc(F)cc2F)cc1C [Compound 93] | 50 to 85 | < 20 | > 85 | > 85 | > 85 | > 85 |  |
| CCN(C)/C(S)=N/c1cc(C)c(C(=O)CC2CCCC2)cc1C [Compound 94] | > 85 | < 20 | > 85 | > 85 | > 85 | > 85 |  |
